From patent US9433622B2, “Pyrimidine compounds useful in the treatment of diseases mediated by IKKE and/or TBK1 mechanisms” (DOMAINEX LIMITED, priority 2013, dated 2016)

Legend:
IKKε = IKKε (Homo sapiens (Human), UniProt Q14164); assay: Lanthascreen TR-FRET kinase inhibition assay, IKKε; format: biochemical; conditions: 20 μM ATP (apparent Km), 2 nM kinase, 1 h
Procedure: (§1) Compounds of the invention (synthesised as described below) were tested for activity against the IKKε and TBK-1 enzyme as follows:
(§2) Inhibitions studies were performed using a time-resolved fluorescence-based Lanthascreen™ assay. Phosphorylation of a fluorescein-labelled substrate peptide is measured using terbium-labeled phosphospecific antibodies.
(§3) Kinase inhibition assays (10 μL) were performed at 20° C. in 384-well plate format. […] The final reaction conditions contained 400 nM fluorescein-IkBα substrate ([…]), 20 μM ATP, 2 nM or 8 nM IKKε or TBK1 kinase respectively, and 3% DMSO in kinase assay buffer consisting of 50 mM HEPES (pH 7.5), 10 mM MgCl, 1 mM EGTA, 0.01% Brij-35.
(§4) Compound dilutions were prepared from 10 mM DMSO stocks by dilution into DMSO.
(§5) The kinase phosphorylation assay was initiated by the addition of the kinase and the reaction was allowed to proceed for 1 h or 2.5 h for IKKε and TBK-1 kinase respectively.

TBK1 = TBK1 (Homo sapiens (Human), UniProt Q9UHD2); assay: Lanthascreen TR-FRET kinase inhibition assay, TBK1; format: biochemical; conditions: 20 μM ATP (apparent Km), 8 nM kinase, 2.5 h
Procedure: as §1, §2, §3, §4, §5

Chain of IKKε (Q14164 whole entry): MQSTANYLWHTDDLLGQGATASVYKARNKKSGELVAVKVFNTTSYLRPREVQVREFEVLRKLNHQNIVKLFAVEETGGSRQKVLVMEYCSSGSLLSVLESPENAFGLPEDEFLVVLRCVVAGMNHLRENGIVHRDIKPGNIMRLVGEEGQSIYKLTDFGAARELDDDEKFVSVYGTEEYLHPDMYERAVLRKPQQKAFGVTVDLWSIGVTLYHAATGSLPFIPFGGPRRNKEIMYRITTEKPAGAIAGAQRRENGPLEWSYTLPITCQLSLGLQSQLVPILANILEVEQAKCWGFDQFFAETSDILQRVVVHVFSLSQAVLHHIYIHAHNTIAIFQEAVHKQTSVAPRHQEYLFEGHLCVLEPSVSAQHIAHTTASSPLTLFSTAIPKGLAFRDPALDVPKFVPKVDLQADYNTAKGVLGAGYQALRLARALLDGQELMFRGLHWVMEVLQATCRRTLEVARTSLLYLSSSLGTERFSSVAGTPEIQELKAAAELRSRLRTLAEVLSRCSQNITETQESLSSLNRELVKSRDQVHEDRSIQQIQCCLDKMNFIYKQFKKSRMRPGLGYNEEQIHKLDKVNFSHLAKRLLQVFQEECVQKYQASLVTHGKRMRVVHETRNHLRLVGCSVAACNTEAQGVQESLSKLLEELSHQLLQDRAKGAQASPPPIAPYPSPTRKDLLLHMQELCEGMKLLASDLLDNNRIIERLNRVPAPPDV
Chain of TBK1 (Q9UHD2 whole entry): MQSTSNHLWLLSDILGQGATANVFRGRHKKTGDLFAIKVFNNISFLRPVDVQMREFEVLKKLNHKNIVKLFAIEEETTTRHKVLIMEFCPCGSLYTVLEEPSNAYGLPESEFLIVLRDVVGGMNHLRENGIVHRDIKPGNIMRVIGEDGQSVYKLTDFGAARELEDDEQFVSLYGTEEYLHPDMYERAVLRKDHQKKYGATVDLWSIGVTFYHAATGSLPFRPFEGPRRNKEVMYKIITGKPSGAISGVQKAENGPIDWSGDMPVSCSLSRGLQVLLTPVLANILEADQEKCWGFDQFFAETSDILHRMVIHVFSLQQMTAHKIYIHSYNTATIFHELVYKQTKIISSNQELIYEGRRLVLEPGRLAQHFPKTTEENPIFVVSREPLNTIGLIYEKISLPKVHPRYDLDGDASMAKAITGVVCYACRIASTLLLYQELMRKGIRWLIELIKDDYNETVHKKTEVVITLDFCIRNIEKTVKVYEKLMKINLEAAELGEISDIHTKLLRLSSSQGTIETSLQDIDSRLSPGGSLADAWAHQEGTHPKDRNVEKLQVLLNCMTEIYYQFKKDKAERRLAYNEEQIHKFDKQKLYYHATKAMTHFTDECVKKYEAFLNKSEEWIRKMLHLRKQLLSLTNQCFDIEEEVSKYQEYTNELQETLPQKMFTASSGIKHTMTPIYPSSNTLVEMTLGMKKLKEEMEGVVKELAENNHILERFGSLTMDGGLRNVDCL

| IC50 (IKKε) [µM] | IC50 (TBK1) [µM] | Compound |
| --- | --- | --- |
| < 0.1 | < 0.1 | Cn1cc(Nc2nccc(-c3ccc(N4CC[C@H](O)C4)c(C#N)n3)n2)cn1 [DMX-59, 3-((S)-3-Hydroxy-pyrrolidin-1-yl)-6-[2-(1-methyl-1H-pyrazol-4-ylamino)-pyrimidin-4-yl]-pyridine-2-carbonitrile] |
| < 0.1 | < 0.1 | Cn1cc(Nc2nccc(-c3ccc(N4CCC(C(N)=O)CC4)c(C#N)n3)n2)cn1 [DMX-60, 2′-Cyano-6′-[2-(1-methyl-1H-pyrazol-4-ylamino)-pyrimidin-4-yl]-3,4,5,6-tetrahydro-2H-[1,3′]bipyridinyl-4-carboxylic acid amide] |
| < 0.015 | < 0.015 | N#Cc1cc(-c2ccnc(Nc3ccnc(N4CCOCC4)c3)n2)cnc1N1CC[C@H](F)C1 [DMX-61, 2-((S)-3-Fluoro-pyrrolidin-1-yl)-5-[2-(2-morpholin-4-yl-pyridin-4-ylamino)-pyrimidin-4-yl]-nicotinonitrile] |
| < 0.03 | < 0.1 | CC(C)(N)C(=O)Nc1ccc(Nc2nccc(-c3cnc(N4CC[C@H](F)C4)c(C#N)c3)n2)cn1 [DMX-62, 2-Amino-N-(5-{4-[5-cyano-6-((S)-3-fluoro-pyrrolidin-1-yl)-pyridin-3-yl]-pyrimidin-2-ylamino}-pyridin-2-yl)-2-methyl-propionamide] |
| < 0.015 | < 0.015 | N#Cc1cc(-c2ccnc(Nc3cn[nH]c3)n2)cnc1N1CC[C@H](F)C1 [DMX-63, 2-((S)-3-Fluoro-pyrrolidin-1-yl)-5-[2-(1H-pyrazol-4-ylamino)-pyrimidin-4-yl]-nicotinonitrile] |
| < 0.1 | < 1 | N#Cc1cc(-c2ccnc(Nc3ccn[nH]3)n2)cnc1N1CC[C@H](F)C1 [DMX-64, 2-((S)-3-Fluoro-pyrrolidin-1-yl)-5-[2-(2H-pyrazol-3-ylamino)-pyrimidin-4-yl]-nicotinonitrile] |
| < 0.03 | < 0.1 | N#Cc1cc(-c2ccnc(Nc3ccc(NC(=O)[C@@H]4CCCN4)nc3)n2)cnc1N1CC[C@H](F)C1 [DMX-65, (S)-Pyrrolidine-2-carboxylic acid (5-{4-[5-cyano-6-((S)-3-fluoro-pyrrolidin-1-yl)-pyridin-3-yl]-pyrimidin-2-ylamino}-pyridin-2-yl)-amide] |
| < 0.1 | < 0.03 | N#Cc1cc(-c2ccnc(Nc3ccc(NC(=O)CN4CCCC4)nc3)n2)cnc1N1CC[C@H](F)C1 [DMX-66, N-(5-{4-[5-Cyano-6-((S)-3-fluoro-pyrrolidin-1-yl)-pyridin-3-yl]-pyrimidin-2-ylamino}-pyridin-2-yl)-2-pyrrolidin-1-yl-acetamide] |
| < 0.015 | < 0.03 | N#Cc1cc(-c2ccnc(Nc3ccc(NCCN4CCOCC4)nc3)n2)cnc1N1CC[C@H](F)C1 [DMX-67, 2-((S)-3-Fluoro-pyrrolidin-1-yl)-5-{2-[6-(2-morpholin-4-yl-ethylamino)-pyridin-3-ylamino]-pyrimidin-4-yl}-nicotinonitrile] |
| < 0.015 | < 0.015 | N#Cc1cc(-c2ccnc(Nc3ccc(CN4CCOCC4)nc3)n2)cnc1N1CC[C@H](F)C1 [DMX-68, 2-((S)-3-Fluoro-pyrrolidin-1-yl)-5-[2-(6-morpholin-4-ylmethyl-pyridin-3-ylamino)-pyrimidin-4-yl]-nicotinonitrile] |
| < 0.03 | < 0.1 | N#Cc1cc(-c2ccnc(Nc3ccc(NC(=O)CN4CC[C@H](F)C4)nc3)n2)cnc1N1CC[C@H](F)C1 [DMX-69, N-(5-{4-[5-Cyano-6-((S)-3-fluoro-pyrrolidin-1-yl)-pyridin-3-yl]-pyrimidin-2-ylamino}-pyridin-2-yl)-2-((S)-3-fluoro-pyrrolidin-1-yl)-acetamide] |
| < 0.1 | < 0.1 | N#Cc1cc(-c2ccnc(Nc3ccc(OCCN4CC[C@H](F)C4)nc3)n2)cnc1N1CC[C@H](F)C1 [DMX-70, 2-((S)-3-Fluoro-pyrrolidin-1-yl)-5-(2-{6-[2-((S)-3-fluoro-pyrrolidin-1-yl)-ethoxy]-pyridin-3-ylamino}-pyrimidin-4-yl)-nicotinonitrile] |
| < 0.03 | < 0.03 | N#Cc1cc(-c2ccnc(Nc3ccnc(N4CCOCC4)c3)n2)cnc1N1CC[C@H](O)C1 [DMX-71, 2-((S)-3-Hydroxy-pyrrolidin 1-yl)-5-[2-(2-morpholin-4-yl-pyridin-4-ylamino)-pyrimidin-4-yl]-nicotinonitrile] |
| < 0.03 | < 0.015 | COCCNc1cc(Nc2nccc(-c3cnc(N4CC[C@H](F)C4)c(C#N)c3)n2)ccn1 [DMX-72, 2-((S)-3-Fluoro-pyrrolidin-1-yl)-5-{2-[2-(2-methoxy-ethylamino)-pyridin-4-ylamino]-pyrimidin-4-yl}-nicotinonitrile] |
| < 1 | < 1 | N#Cc1cc(-c2ccnc(Nc3cccc(=O)[nH]3)n2)cnc1N1CC[C@H](F)C1 [DMX-73, 2-((S)-3-Fluoro-pyrrolidin-1-yl)-5-[2-(6-oxo-1,6-dihydro-pyridin-2-ylamino)-pyrimidin-4-yl]-nicotinonitrile] |
| < 0.1 | < 0.1 | CN(C(=O)CN1CCOCC1)c1ccc(Nc2nccc(-c3cnc(N4CC[C@H](F)C4)c(C#N)c3)n2)cn1 [DMX-74, N-(5-{4-[5-Cyano-6-((S)-3-fluoro-pyrrolidin-1-yl)-pyridin-3-yl]-pyrimidin-2-ylamino}-pyridin-2-yl)-N-methyl-2-morpholin-4-yl-acetamide] |
| < 1 | < 1 | CN(C(=O)CN1CCOCC1)c1ccc(Nc2nccc(-c3cnc(N4CC[C@H](O)C4)c(C#N)c3)n2)cn1 [DMX-75, N-(5-{4-[5-Cyano-6-((S)-3-hydroxy-pyrrolidin-1-yl)-pyridin-3-yl]-pyrimidin-2-ylamino}-pyridin-2-yl)-N-methyl-2-morpholin-4-yl-acetamide] |
| < 0.015 | < 0.015 | CN1Cc2ccc(Nc3nccc(-c4cnc(N5CC[C@H](F)C5)c(C#N)c4)n3)cc2C1 [DMX-76, 2-((S)-3-Fluoro-pyrrolidin-1-yl)-5-[2-(2-methyl-2,3-dihydro-1H-isoindol-5-ylamino)-pyrimidin-4-yl]-nicotinonitrile] |
| < 0.1 | < 0.1 | COCCNCc1ccc(Nc2nccc(-c3cnc(N4CC[C@H](F)C4)c(C#N)c3)n2)cn1 [DMX-77, 2-((S)-3-Fluoro-pyrrolidin-1-yl)-5-(2-{6-[(2-methoxy-ethylamino)-methyl]-pyridin-3-ylamino}-pyrimidin-4-yl)-nicotinonitrile] |
| < 0.03 | < 0.015 | C[C@H]1COCCN1Cc1cc(Nc2nccc(-c3cnc(N4CC[C@H](F)C4)c(C#N)c3)n2)ccn1 [DMX-78, 2-((S)-3-Fluoro-pyrrolidin-1-yl)-5-{2-[2-((S)-3-methyl-morpholin-4-ylmethyl)-pyridin-4-ylamino]-pyrimidin-4-yl}-nicotinonitrile] |
| < 0.1 | < 0.03 | C[C@H]1COCCN1Cc1ccc(Nc2nccc(-c3cnc(N4CC[C@H](F)C4)c(C#N)c3)n2)cn1 [DMX-79, 2-((S)-3-Fluoro-pyrrolidin-1-yl)-5-{2-[6-((S)-3-methyl-morpholin-4-ylmethyl)-pyridin-3-ylamino]-pyrimidin-4-yl}-nicotinonitrile] |
| < 0.015 | < 0.03 | N#Cc1cc(-c2ccnc(Nc3ccc(CN4CC[C@H](F)C4)nc3)n2)cnc1N1CC[C@H](F)C1 [DMX-80, 2-((S)-3-Fluoro-pyrrolidin-1-yl)-5-{2-[6-((S)-3-fluoro-pyrrolidin-1-ylmethyl)-pyridin-3-ylamino]-pyrimidin-4-yl}-nicotinonitrile] |
| < 0.03 | < 0.03 | Cc1nccn1Cc1ccc(Nc2nccc(-c3cnc(N4CC[C@H](F)C4)c(C#N)c3)n2)cn1 [DMX-81, 2-((S)-3-Fluoro-pyrrolidin-1-yl)-5-{2-[6-(2-methyl-imidazol-1-ylmethyl)-pyridin-3-ylamino]-pyrimidin-4-yl}-nicotinonitrile] |
| < 0.1 | < 0.1 | COCCN(C)Cc1ccc(Nc2nccc(-c3cnc(N4CC[C@H](F)C4)c(C#N)c3)n2)cn1 [DMX-82, 2-((S)-3-Fluoro-pyrrolidin-1-yl)-5-[2-(6-{[(2-methoxy-ethyl)-methyl-amino]-methyl}-pyridin-3-ylamino)-pyrimidin-4-yl]-nicotinonitrile] |
| < 0.03 | < 0.03 | COC1CN(Cc2ccc(Nc3nccc(-c4cnc(N5CC[C@H](F)C5)c(C#N)c4)n3)cn2)C1 [DMX-83, 2-((S)-3-Fluoro-pyrrolidin-1-yl)-5-{2-[6-(3-methoxy-azetidin-1-ylmethyl)-pyridin-3-ylamino]-pyrimidin-4-yl}-nicotinonitrile] |
| < 0.1 | < 0.1 | N#Cc1cc(-c2ccnc(Nc3ccc(CN4CCOCC4)nc3)n2)cnc1N1CCCOCC1 [DMX-84, 5-[2-(6-Morpholin-4-ylmethyl-pyridin-3-ylamino)-pyrimidin-4-yl]-2-[1,4]oxazepan-4-yl-nicotinonitrile] |
| < 0.1 | < 0.1 | N#Cc1cc(-c2ccnc(Nc3ccc(NC(=O)CN4CCOCC4)nc3)n2)cnc1N1CCCOCC1 [DMX-85, N-{5-[4-(5-Cyano-6-[1,4]oxazepan-4-yl-pyridin-3-yl)-pyrimidin-2-ylamino]-pyridin-2-yl}-2-morpholin-4-yl-acetamide] |
| < 1 | < 0.1 | N#Cc1cc(-c2nc(Nc3ccc(NC(=O)CN4CCOCC4)nc3)ncc2F)cnc1N1CCCOCC1 [DMX-86, N-{5-[4-(5-Cyano-6-[1,4]oxazepan-4-yl-pyridin-3-yl)-5-fluoro-pyrimidin-2-ylamino]-pyridin-2-yl}-2-morpholin-4-yl-acetamide] |
